# Reference: ChEMBL document CHEMBL1201862, “PubChem BioAssay data set” (2004)
# Calls of active or inactive are those of the source.
# How the values were obtained:
# cells = format: functional
# H9c2 = assay: cells; format: functional, cell-based; settings: Rattus norvegicus, H9c2, Myocardium;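 also: confirmatory concentration-response retest of ultra-high-throughput screening hits for modulation of myocardial damage; cell death induced by hydrogen peroxide oxidative stress; compound pretreatment for 60 min then peroxide exposure for 2 h; potency is for protecting the cells against peroxide damage rather than for killing them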
# [1] = target: T1, Zinc finger protein mex-5 (Caenorhabditis elegans, UniProt Q9XUB2); assay: potency of MEX-5 RNA-binding blockers – biochemical, C. elegans, fluorescence polarization, dose response (AID 1960)
# T1 sequence (Q9XUB2 whole entry): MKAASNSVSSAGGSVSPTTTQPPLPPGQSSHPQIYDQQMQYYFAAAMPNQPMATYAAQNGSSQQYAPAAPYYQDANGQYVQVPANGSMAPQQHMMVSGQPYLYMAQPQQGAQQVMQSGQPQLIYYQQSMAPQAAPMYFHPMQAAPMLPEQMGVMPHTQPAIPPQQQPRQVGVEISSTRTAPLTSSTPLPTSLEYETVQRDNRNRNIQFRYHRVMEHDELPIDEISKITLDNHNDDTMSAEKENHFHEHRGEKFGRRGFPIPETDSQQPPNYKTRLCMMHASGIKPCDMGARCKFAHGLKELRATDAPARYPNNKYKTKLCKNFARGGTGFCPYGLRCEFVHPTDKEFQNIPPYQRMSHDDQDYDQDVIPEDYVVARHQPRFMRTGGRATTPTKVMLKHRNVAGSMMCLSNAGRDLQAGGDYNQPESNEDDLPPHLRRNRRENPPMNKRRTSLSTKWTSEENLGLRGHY
# [2] = target: T2, RNA-binding protein pos-1 (Caenorhabditis elegans, UniProt G5EF15); assay: disruptors of C. elegans POS-1 RNA interaction – biochemical, fluorescence polarization, dose response (AID 1964);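 also: purified POS-1 fused to maltose binding protein made in E. coli; potency of compounds blocking POS-1 binding to fluorescent RNA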
# T2 sequence (G5EF15 whole entry): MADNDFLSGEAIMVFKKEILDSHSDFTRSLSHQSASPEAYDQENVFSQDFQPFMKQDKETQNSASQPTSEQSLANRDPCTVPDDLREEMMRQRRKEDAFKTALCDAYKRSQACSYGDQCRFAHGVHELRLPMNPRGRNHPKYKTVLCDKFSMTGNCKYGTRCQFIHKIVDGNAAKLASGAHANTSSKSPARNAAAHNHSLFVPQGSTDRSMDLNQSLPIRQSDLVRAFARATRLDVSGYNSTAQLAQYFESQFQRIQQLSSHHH
# [3] = target: T3, Short transient receptor potential channel 4 (Mus musculus, UniProt Q9QUQ5); assay: calcium entry via TRPC4 opening agents – cell-based, HEK293 TRPC4/mu-opioid, Fluo-4 calcium, dose response (AID 434937); format: functional
# T3 sequence (Q9QUQ5 whole entry): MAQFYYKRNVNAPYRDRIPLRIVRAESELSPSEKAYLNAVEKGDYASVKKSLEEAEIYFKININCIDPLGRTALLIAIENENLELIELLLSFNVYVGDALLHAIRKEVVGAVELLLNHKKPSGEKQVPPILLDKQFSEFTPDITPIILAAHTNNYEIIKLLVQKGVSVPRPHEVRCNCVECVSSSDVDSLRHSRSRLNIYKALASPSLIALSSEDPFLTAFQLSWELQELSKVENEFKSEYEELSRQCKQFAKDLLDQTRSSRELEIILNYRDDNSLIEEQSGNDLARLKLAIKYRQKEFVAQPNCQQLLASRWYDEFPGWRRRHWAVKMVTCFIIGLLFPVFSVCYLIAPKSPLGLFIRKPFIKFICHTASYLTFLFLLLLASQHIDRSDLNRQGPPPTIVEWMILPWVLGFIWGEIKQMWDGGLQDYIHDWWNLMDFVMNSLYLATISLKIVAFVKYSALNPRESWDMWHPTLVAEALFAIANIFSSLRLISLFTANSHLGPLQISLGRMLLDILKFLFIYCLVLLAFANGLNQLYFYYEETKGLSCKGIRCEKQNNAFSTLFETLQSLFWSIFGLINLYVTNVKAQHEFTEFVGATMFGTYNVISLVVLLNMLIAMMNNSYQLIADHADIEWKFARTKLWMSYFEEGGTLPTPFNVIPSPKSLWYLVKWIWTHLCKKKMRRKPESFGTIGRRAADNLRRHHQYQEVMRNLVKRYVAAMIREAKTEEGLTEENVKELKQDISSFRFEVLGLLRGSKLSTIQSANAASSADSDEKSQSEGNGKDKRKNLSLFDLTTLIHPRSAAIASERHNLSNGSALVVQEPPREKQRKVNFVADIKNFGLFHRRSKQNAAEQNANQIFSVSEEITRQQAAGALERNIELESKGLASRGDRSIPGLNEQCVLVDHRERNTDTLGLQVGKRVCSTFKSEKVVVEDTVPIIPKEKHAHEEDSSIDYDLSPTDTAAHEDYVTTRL
# [4] = target: T4, Carboxy-terminal domain RNA polymerase II polypeptide A small phosphatase 1 (Homo sapiens, UniProt Q9GZU7); assay: CTDSP1 inhibitors, concentration-response, biochemical, absorbance readout, ultra-high-throughput screen actives (AID 540297); format: functional
# T4 sequence (Q9GZU7 whole entry): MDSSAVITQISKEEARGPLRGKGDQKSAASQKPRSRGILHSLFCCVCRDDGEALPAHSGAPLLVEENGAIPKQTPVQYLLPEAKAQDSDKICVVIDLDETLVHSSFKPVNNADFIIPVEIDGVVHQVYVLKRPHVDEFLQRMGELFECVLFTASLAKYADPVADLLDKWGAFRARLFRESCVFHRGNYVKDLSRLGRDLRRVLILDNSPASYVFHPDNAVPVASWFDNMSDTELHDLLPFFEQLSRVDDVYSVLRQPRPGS
# [5] = microbe, parasite or virus in culture; format: functional; settings: Mycobacterium tuberculosis
# Streptococcus = assay: GAS UMAA2166 growth inhibition – luminescence, BacTiterGlo, counter-screen for streptokinase expression inhibitor project, dose response (AID 1915); format: functional, organism-based;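 also: potency for reduction of bacterial viability or growth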
# Streptokinase A = target: T5, Streptokinase A (Streptococcus pyogenes serotype M1, UniProt P10520); assay: viability-normalized secreted streptokinase activity reduction – plasminogen activation absorbance, OD405, dose response (AID 1914); format: functional, Streptococcus pyogenes M1 GAS;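 also: secreted streptokinase activity via plasminogen activation per viability signal from cell pellet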
# T5 sequence (P10520 whole entry): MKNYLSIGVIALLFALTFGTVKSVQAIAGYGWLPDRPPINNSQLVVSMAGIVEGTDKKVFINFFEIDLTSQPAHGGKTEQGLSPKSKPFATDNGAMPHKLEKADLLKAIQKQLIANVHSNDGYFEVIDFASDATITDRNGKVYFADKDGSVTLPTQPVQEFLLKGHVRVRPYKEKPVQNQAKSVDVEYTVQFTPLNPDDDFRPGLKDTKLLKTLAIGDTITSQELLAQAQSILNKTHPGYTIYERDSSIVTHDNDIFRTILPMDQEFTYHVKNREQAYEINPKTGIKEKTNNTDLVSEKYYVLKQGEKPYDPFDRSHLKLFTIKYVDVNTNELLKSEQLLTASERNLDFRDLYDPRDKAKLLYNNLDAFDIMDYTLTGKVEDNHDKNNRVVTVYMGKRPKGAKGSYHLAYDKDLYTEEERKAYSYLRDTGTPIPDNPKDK
# [6] = test system: Streptococcus sp. 'group A'; assay: Streptococcus pyogenes SK(-)GAS viability under kanamycin – luminescence, BacTiterGlo, confirmation, counter-screen for streptokinase expression inhibitor project, dose response (AID 1900); format: functional, organism-based
# [7] = target: T6, Polyadenylate-binding protein 1 (Homo sapiens, UniProt P11940); assay: MLLE domain peptide-binding blockers, IC50 – biochemical, fluorescence polarization, FITC-PAM2 peptide, dose response (AID 602259); format: functional; settings: read-out: IC50_Mean
# T6 sequence (P11940 whole entry, the tested form may be a part): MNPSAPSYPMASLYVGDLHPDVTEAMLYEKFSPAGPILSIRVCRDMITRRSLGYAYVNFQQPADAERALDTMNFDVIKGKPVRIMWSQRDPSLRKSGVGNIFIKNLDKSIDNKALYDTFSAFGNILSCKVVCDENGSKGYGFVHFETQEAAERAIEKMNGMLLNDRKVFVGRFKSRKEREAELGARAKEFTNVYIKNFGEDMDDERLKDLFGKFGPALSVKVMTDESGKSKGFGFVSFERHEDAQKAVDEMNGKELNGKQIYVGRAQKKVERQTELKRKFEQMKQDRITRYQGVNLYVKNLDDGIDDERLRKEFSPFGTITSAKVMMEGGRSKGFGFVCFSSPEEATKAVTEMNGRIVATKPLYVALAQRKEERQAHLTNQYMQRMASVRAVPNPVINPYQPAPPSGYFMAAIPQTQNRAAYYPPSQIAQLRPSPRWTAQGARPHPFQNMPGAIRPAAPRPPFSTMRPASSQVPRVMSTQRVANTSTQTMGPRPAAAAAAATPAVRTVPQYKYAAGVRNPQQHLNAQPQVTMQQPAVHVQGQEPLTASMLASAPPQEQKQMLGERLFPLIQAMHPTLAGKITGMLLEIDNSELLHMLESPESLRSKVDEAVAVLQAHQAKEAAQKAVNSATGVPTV
# [8] = target: T6, Polyadenylate-binding protein 1; assay: MLLE binding blockers, Cy5 peptide tracer – biochemical, fluorescence polarization, Cy5-PAM2 peptide, secondary, miRNA deadenylation inhibitor project, dose response (AID 602260); format: functional; settings: read-out: IC50_Mean
# [9] = Trypanosoma cruzi growth suppression in host cells – NIH3T3 host cells, beta-gal luminescence, confirmation (AID 2044); format: functional, cell-based;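 also: intracellular parasites grown in NIH/3T3 mouse fibroblasts as host cells; luminescent beta-galactosidase reporter signal from transgenic T. cruzi replicating inside host cells; inhibitors lower the luminescence signal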
# [10] = NIH3T3 cell viability loss – ATP luminescence, mouse fibroblasts, counter-screen, dose response (AID 2010); format: functional, cell-based;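 also: cells exposed to compound for about 90 hours before reading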
# [11] = target: T7, Corticotropin-releasing factor receptor 2/Corticotropin-releasing factor-binding protein (Homo sapiens, UniProt P24387+Q13324); assay: Dose Response confirmation of uHTS hits for small molecule antagonists of the CRF-binding protein and CRF-R2 receptor complex.; format: functional; settings: read-out: IC50_Mean
# T7 sequence (Q13324 whole entry): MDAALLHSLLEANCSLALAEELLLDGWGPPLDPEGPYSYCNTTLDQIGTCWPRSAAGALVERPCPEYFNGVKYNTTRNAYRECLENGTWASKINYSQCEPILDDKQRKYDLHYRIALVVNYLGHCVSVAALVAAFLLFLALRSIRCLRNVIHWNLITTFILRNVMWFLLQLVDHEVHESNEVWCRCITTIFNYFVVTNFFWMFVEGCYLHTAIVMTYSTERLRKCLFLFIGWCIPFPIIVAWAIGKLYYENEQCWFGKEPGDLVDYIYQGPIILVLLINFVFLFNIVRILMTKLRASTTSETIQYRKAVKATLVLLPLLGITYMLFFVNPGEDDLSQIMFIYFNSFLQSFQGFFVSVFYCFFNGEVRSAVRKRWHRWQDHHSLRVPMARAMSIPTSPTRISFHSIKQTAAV
# T7 sequence (P24387 whole entry): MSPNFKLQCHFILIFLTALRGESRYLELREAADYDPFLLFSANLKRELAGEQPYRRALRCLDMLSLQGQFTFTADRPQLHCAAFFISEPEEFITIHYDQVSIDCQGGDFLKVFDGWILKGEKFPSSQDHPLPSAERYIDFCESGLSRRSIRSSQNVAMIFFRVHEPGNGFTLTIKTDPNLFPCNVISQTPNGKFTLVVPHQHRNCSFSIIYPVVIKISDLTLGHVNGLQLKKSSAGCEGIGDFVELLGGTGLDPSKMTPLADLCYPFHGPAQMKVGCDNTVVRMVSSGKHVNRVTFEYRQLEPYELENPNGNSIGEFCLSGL
# [12] = target: T7, Corticotropin-releasing factor receptor 2/Corticotropin-releasing factor-binding protein; assay: activators of CRF receptor 2 with binding protein – uHTS hits, confirmation (AID 602473); format: functional; settings: read-out: EC50_Mean
compound,measurement,setting,value
COC(=O)COc1cccc(/C=N/NC(=O)CCSc2ccccc2)c1,IC50,cells,4.13 µM (active)
C=CCOC(=O)C1=C[C@H](c2cn(C(C)=O)c3ccccc23)C[C@H](OCc2ccc(CO)cc2)O1,IC50,H9c2,10.3 µM (active)
Cc1ccc(C2C(C(=O)c3ccco3)=C(O)C(=O)N2c2nnc(C)s2)cc1 (stereo unspecified),EC50,[1],> 300 µM (inconclusive)
same,EC50,[2],> 300 µM (not active)
S=C(NCCc1ccccn1)NC1CCCCC1,EC50,[3],6.68 µM (active)
N#CCC(=O)N/N=C/c1ccc(Sc2nc3ccccc3s2)o1,IC50,[4],9.4 µM (active)
COc1cc(/C=N/NC(=O)c2ccncc2)ccc1OC(=O)c1cccc(F)c1,IC50,cells,0.48 µM (active)
O=C(Nc1cccc(-c2csc(Nc3ccc(Cl)cc3)n2)c1)c1cccc(C(F)(F)F)c1,CC50,[5],20.6 µM (active)
COC(=O)CNC(=O)C1Nc2ccccc2C2C=CCC12 (stereo unspecified),EC50,[1],173 µM (active)
same,EC50,[2],> 300 µM (not active)
Cc1ccc(/C=C2/Sc3ccc(C(=O)N4CCN(c5ccccn5)CC4)cc3NC2=O)cc1,EC50,Streptococcus,4.43 µM (active)
same,EC50,[1],5.05 µM (active)
same,EC50,[2],27.2 µM (active)
same,EC50,Streptokinase A,> 150 µM (not active)
same,EC50,[6],3.03 µM (active)
CC1C2C(C)N(C)C(=O)N(C)C2N(C)C(=O)N1C (stereo unspecified),EC50,[1],18.5 µM (active)
same,EC50,[2],25 µM (active)
same,IC50,[7],29.1 µM (inactive)
same,IC50,[8],> 66 µM (inactive)
NC(=S)N/N=C/c1ccccc1OCCSc1ccc(Cl)cc1,EC50,[9],0.224 µM (active)
same,CC50,[5],24.6 µM (active)
same,EC50,[10],> 60 µM (not active)
O=C(Cc1ccccc1)N/N=C/c1ccc2cccc(O)c2n1,CC50,[5],> 40 µM (active)
Brc1ccc(-c2ccc(/C=N/Nc3nncc(-c4ccccc4)n3)o2)cc1,CC50,[5],20.7 µM (active)
COc1ccc(-c2nc(CSCC(=O)NC3CCN(Cc4ccccc4)CC3)c(C)o2)cc1OC,EC50,[3],1.5 µM (active)
NC(=O)c1ccsc1NC(=O)COC(=O)Cc1nnc(O)c2ccccc12,IC50,H9c2,> 79 µM (inactive)
C[C@H]1OC[C@@H](C[N+](C)(C)C)O1,EC50,[3],0.188 µM (active)
Cc1c(C(=O)N(C)C)sc2nc(-c3ccccn3)nc(O)c12,IC50,cells,9.8 µM (active)
same,CC50,[5],> 40 µM (active)
C=C1c2cccc(OC)c2O[C@H](C(=O)OCC)[C@@H]1CCCCCC,IC50,[4],10.2 µM (active)
CN(C)CCCN(C(=O)c1ccc(S(=O)(=O)N2CCCCCC2)cc1)c1nc2ccc(F)cc2s1,EC50,[3],4.22 µM (active)
C=CCn1cc/c(=N\C=C(C#N)C#N)c2ccccc21,EC50,[1],> 300 µM (not active)
same,EC50,[2],> 300 µM (not active)
Cc1ccc(-c2ccc(=O)n(CC(=O)N3CCN(c4cc(Cl)ccc4C)CC3)n2)cc1,CC50,[5],> 40 µM (active)
Cc1nn(-c2cc(Cl)ccc2N)c(=O)c2ccccc12,IC50,[4],63.2 µM (active)
O=C(C1CC(=O)N(c2ccc3c(c2)OCCO3)C1)N1CCN(c2cccc(C(F)(F)F)c2)CC1 (stereo unspecified),CC50,[5],> 40 µM (active)
Cn1c(=O)[nH]c(=O)c2c1nc(N/N=C/C(Br)=C/c1ccccc1)n2CCO,EC50,[1],55.5 µM (active)
same,EC50,[2],206 µM (active)
O=C(CSc1ccc(-c2ccccn2)nn1)N1CCCc2ccccc21,IC50,H9c2,20.8 µM (active)
CC/N=c1\scc(-c2ccco2)n1/N=C/c1ccc(OC)c(O)c1,CC50,[5],> 40 µM (active)
CCOc1ccc(C(=O)COC(=O)Cn2[nH]c(=O)c3ccccc3c2=O)cc1,IC50,H9c2,> 79 µM (inactive)
NC(=O)c1ccccc1OCC(=O)Nc1cccnc1Cl,IC50,H9c2,27.7 µM (active)
Cc1cc(=O)oc2cc(OCC(=O)N3CCN(C(=O)C4COc5ccccc5O4)CC3)c(Cl)cc12 (stereo unspecified),IC50,H9c2,> 79 µM (inactive)
N#C/C(=C1\CCCN1)c1nc(O)c2ccccc2n1,IC50,H9c2,60.4 µM (inactive)
same,IC50,[11],> 47.1 µM (inactive)
same,EC50,[12],> 53 µM (inactive)
